The values that follow come from paper PMC6381024, “Probing Anti-inflammatory Properties Independent of NF-κB Through Conformational Constraint of Peptide-Based Interleukin-1 Receptor Biased Ligands” (Frontiers in Chemistry, 2019).

One assay has as its system Sprague Dawley rat pups. The assay can be described thus: Oxygen-induced retinopathy (OIR), retinal vaso-obliteration in rat pups. It is filed as in vivo. On the set-up: key to In vivo OIR (heatmap grade of efficacy): 0: No effect; No effect 01234 Maximum inhibition/efficacy; No effect 01234 Maximum inhibition/efficacy; No effect 01234 Maximum inhibition/efficacy; 4: Maximum inhibition/efficacy. To be noted: for In vivo OIR (heatmap grade of efficacy): Sprague Dawley rat pups, 80% O2 P5-P10, Kineret 3 mg/kg/day (legend: 15 mg/kg/day), twice-daily i.p.; for In vivo OIR (heatmap grade of efficacy) / Extent of vaso-obliteration (area as percentage of total retinal area) after treatment: peptides 2 mg/kg/day; for Extent of vaso-obliteration (area as percentage of total retinal area) after treatment / Efficacy against vaso-obliteration in the OIR model: rat pups, 80% oxygen days 5 to 10; for Extent of vaso-obliteration (area as percentage of total retinal area) after treatment: Kineret 3 mg/kg/day (legend: 15 mg/kg/day) i.p., untreated ~35%; for Efficacy against vaso-obliteration in the OIR model: 2 mg/kg/day i.p. From the text:
On P5, litters were transferred to a controlled hyperoxic environment (Biospherix OxyCycler A84XOV) and maintained at 80 ± 1% O2, which is used to induce vaso-obliteration of the retinal vasculature. At this timepoint, the vasculature is immature and particularly susceptible to […] insults resulting in vaso-obliteration, a defining characteristic of the early stage of retinopathies in premature infants (Garner and Ashton, [1971]). Control litters were not exposed to hyperoxia and were kept in standard conditions with room air (21% O2). To control for the effects of hyperoxia on the lactation of the dams, dams of hyperoxic litters were switched with dams of control litters on P8.
In litters exposed to hyperoxia, pups were randomized to receive phosphate-buffered saline (PBS) vehicle, 2 mg/kg/day of peptides 1, 5, or 6 or 3 mg/kg/day of Kineret from P5 to P10. These doses were determined from our previous study (Rivera et al., [2013]) and administered in twice-daily intra-peritoneal injections titrated to 20 μL per injection with 28-gauge insulin syringes. A total of 6–8 pups were used for each treatment group.
On P10, pups were euthanized by decapitation under 2% isoflurane anesthesia. Eyes were enucleated and fixed in 4% paraformaldehyde for 1 h at room temperature before washing twice with PBS and storage at 4°C in PBS until further processing.
Under a dissecting microscope, the cornea and lens were gently removed from the eyes and remnants of the hyaloid vasculature were removed from the retinas using surgical scissors and tweezers. The retinas were gently removed from the underlying sclera/choroid complex.
Retinas were treated at room temperature for 1 h with a blocking solution consisting of 1% bovine serum albumin (BSA), 1% normal goat serum, 0.1% Triton X-100 and 0.05% Tween-20 in PBS. The retinas were then double-labeled overnight at 4°C with gentle shaking in an antibody solution consisting of 1 mM CaCl2, 1% Triton X-100, 1% TRITC-conjugated lectin cell endothelial marker from Bandeiraea simplicifolia (Sigma-Aldrich, St Louis, MO) and a 1:500 dilution of rabbit anti-ionized calcium-binding adapter molecule (Iba)-1 antibody (Wako Chemicals USA) in PBS. The retinas were then washed thrice with PBS and incubated with a secondary antibody solution consisting of 1% BSA, 0.1% Triton X-100, 0.05% Tween-20 and 1:500 Alexa-594-conjugated donkey anti-rabbit IgG (ThermoFisher Scientific, Rockford, IL) in PBS for 2 h at room temperature. Retinas were washed thrice with PBS and then flat-mounted onto glass slides with coverslips and Fluoro-Gel mounting medium (Electron Microscopy Sciences, Hatfield, PA).
For assessment of vaso-obliteration, retinas were imaged using an epifluorescence microscope at 10X magnification (Zeiss AxioImager Z2) and version 4.8 of the AxioVision software. Images were captured and stitched together using the software's MosaiX feature. Iba-1 staining was assessed with the same microscope at 20X magnification, and a total of 4 fields per retina were imaged halfway between the optic nerve and the edge of the retina.
The FIJI software was used to the quantify the area of vaso-obliteration in each retina, expressed as a percentage of the area of the whole retina. The number of Iba-1-positive cells was counted using the cell counter plug-in in FIJI, and the average of cell counts in 4 fields per retina was calculated.
Figure 10 The preventive effects of peptides 1, 5, and 6 against vaso-obliteration in an OIR model. Five-days old Sprague Dawley pups and their mothers were kept in 80% oxygen until the 10 day of life, receiving twice-daily intraperitoneal injections of peptides 1, 5, and 6 (2 mg/kg/day), Kineret (15 mg/kg/day) or PBS vehicle (each injection was titrated to a volume of 20 μL). (A) Representative retinal flatmounts stained with FITC-conjugated Bandeiraea simplicifolia lectin, taken at 10X magnification and stitched with MosaiX in Axiovision 4.8. […]

The next assay concerns COX2. Put plainly: qPCR of IL-1β-induced COX-2 (PTGHS2) expression in HEK-Blue IL-33/IL-1β cells. The format is cell-based, human. Set-up: key to qPCR COX2 (heatmap grade of inhibition): 0: No effect; No effect 01234 Maximum inhibition/efficacy; No effect 01234 Maximum inhibition/efficacy; No effect 01234 Maximum inhibition/efficacy; 4: Maximum inhibition/efficacy. The conditions noted are these: for qPCR COX2 (heatmap grade of inhibition): HEK-Blue cells, peptide 10^-6 M or Kineret 1.0 mg/mL 30 min, then IL-1β 100 ng/mL 4 h (legend: overnight); for Suppression of COX2 transcription: HEK blue cells, 10^-6 M pre-treatment, IL-1β stimulation. The protocol: HEK-Blue IL-33/IL-1β cells were purchased from InvivoGen (San Diego, CA) and used at passages under 15. HEK-Blue cells were cultured in DMEM growth medium supplemented with 10% serum, 50 U/mL penicillin, […] streptomycin, […] zeocin, and […] hygromycin. Cells were grown in regular conditions (37°C, 5% CO2). Cells were serum starved overnight and treated with 100 ng/mL IL-1β for 4 h. Cells were pre-incubated for 30 min with peptides 1, 5, or 6 (10^−6M) or Kineret (1.0 mg/mL) prior to the experiments to reach equilibrium (n = 4 each treatment). Cells were harvested and incubated for 5 min in RIBOzol (AMRESCO). RNA was extracted according to manufacturer's protocol and RNA concentration and integrity were measured with a NanoDrop 1,000 spectrophotometer. A total of 500 ng RNA was used to synthetize cDNA using iScript Reverse Transcription SuperMix (Bio-Rad, Hercules, CA). Quantitative gene expression analysis was performed on Stratagene MXPro3000 (Stratagene) with SYBR Green Master Mix (Bio-Rad). Gene expression levels were normalized to 18S universal primer (Ambion Life Technology, Burlington ON, Canada). Genes analyzed include IL1β, IL6, and PTGHS2 [Prostaglandin H synthetase 2 or cyclooxygenase-2 (COX-2)]. Data are representative of 3 experiments (each with n = 4 per treatment group).
Figure 8 The effects of peptides 1, 5, and 6 on the expression of pro-inflammatory genes. HEK-Blue cells were pre-treated with peptides 1, 5, and 6 as above and stimulated with IL-1β overnight. qPCR was performed on cell lysates using 18S rRNA as internal control. Graphs are sorted in columns by gene of interest (COX-2, IL-1β, or IL-6) and rows by peptide configuration [(3R) or (3S)]. Results are representative of an average of 3 independent experiments (each with n = 4 per treatment group) and are expressed as a fold-change of the non-stimulated control: ^*p < 0.05, ^**p < 0.01, ^***p < 0.001, ^****p < 0.0001 compared to group treated only with IL-1β. Treatment groups that are not labeled with asterisks are statistically non-significant compared to group treated only with IL-1β.

Take “H-D-Arg-D-Tyr-(3S,4R)-Hgl-D-Val-D-Glu-D-Leu-D-Ala-NH2 [[(3S,4R)-Hgl^3]-1]”: in the assay on Sprague Dawley rat pups, the “In vivo OIR (heatmap grade of efficacy)” value stood at 4 and the “Extent of vaso-obliteration (area as percentage of total retinal area) after treatment” value is 15–25%. Further, the “qPCR COX2 (heatmap grade of inhibition)” value in the assay with COX2 is reported as 4.
Take “H-D-Arg-D-Tyr-(3R,4S)-Hgl-D-Val-D-Glu-D-Leu-D-Ala-NH2 [[(3R,4S)-Hgl^3]-1]”: in the assay with Sprague Dawley rat pups, the “In vivo OIR (heatmap grade of efficacy)” value was found to be 4 and the “Extent of vaso-obliteration (area as percentage of total retinal area) after treatment” value is recorded as 15–25%. The “qPCR COX2 (heatmap grade of inhibition)” value in the assay on COX2 was 4.
With “Kineret: FDA-approved recombinant IL-1 receptor antagonist”, in the assay on Sprague Dawley rat pups, the “In vivo OIR (heatmap grade of efficacy)” value came out at 3 and the “Extent of vaso-obliteration (area as percentage of total retinal area) after treatment” value is 15–20%. The “qPCR COX2 (heatmap grade of inhibition)” value in the assay on COX2 turned out to be 4.
Regarding “H-D-Arg-D-Tyr-(S)-Agl-D-Val-D-Glu-D-Leu-D-Ala-NH2 [[(3S)-Agl^3]-1]”, in the assay on Sprague Dawley rat pups, the “In vivo OIR (heatmap grade of efficacy)” value stood at 1 and the “Efficacy against vaso-obliteration in the OIR model” value is reported as “inactivity”. For the same substance, the “qPCR COX2 (heatmap grade of inhibition)” value with COX2 was found to be 4.
Take “H-D-Arg-D-Tyr-(3R,4R)-Hgl-(S)-Val-D-Glu-D-Leu-D-Ala-NH2 [[(3R,4R)-Hgl^3-(S)-Val^4]-1]”: the “qPCR COX2 (heatmap grade of inhibition)” value in the assay on COX2 stood at 4.
Take “H-D-Arg-D-Tyr-(R)-Agl-D-Val-D-Glu-D-Leu-D-Ala-NH2 [[(3R)-Agl^3]-1]”: in the assay with Sprague Dawley rat pups, the “In vivo OIR (heatmap grade of efficacy)” value was determined as 0 and the “Efficacy against vaso-obliteration in the OIR model” value is given as “inactivity”. Besides, the “qPCR COX2 (heatmap grade of inhibition)” value in the assay on COX2 came out at 3.
Turning to “H-D-Arg-D-Tyr-(S)-Agl-(S)-Val-D-Glu-D-Leu-D-Ala-NH2 [[(3S)-Agl^3-(S)-Val^4]-1]”, in the assay on COX2, the “Suppression of COX2 transcription” value is listed as “ability to suppress the transcription of all three genes was lost” and the “qPCR COX2 (heatmap grade of inhibition)” value stood at 1.
For “H-D-Arg-D-Tyr-(R)-Agl-(S)-Val-D-Glu-D-Leu-D-Ala-NH2 [[(3R)-Agl^3-(S)-Val^4]-1]”, in the assay with COX2, the “Suppression of COX2 transcription” value is reported as “ability to suppress the transcription of all three genes was lost” and the “qPCR COX2 (heatmap grade of inhibition)” value came out at 1.
In the case of “H-D-Arg-D-Tyr-(3R,4S)-Hgl-(S)-Val-D-Glu-D-Leu-D-Ala-NH2 [[(3R,4S)-Hgl^3-(S)-Val^4]-1]”, the “qPCR COX2 (heatmap grade of inhibition)” value with COX2 is 4.
“H-D-Arg-D-Tyr-(3R,4R)-Hgl-D-Val-D-Glu-D-Leu-D-Ala-NH2 [[(3R,4R)-Hgl^3]-1]”: the “qPCR COX2 (heatmap grade of inhibition)” value in the assay on COX2 worked out at 4.
“H-D-Arg-D-Tyr-D-Thr-D-Val-D-Glu-D-Leu-D-Ala-NH2 [Peptide 1]”: in the assay with Sprague Dawley rat pups, the “In vivo OIR (heatmap grade of efficacy)” value amounted to 4 and the “Extent of vaso-obliteration (area as percentage of total retinal area) after treatment” value is 15–20%. In the assay with COX2, the “Suppression of COX2 transcription” value is listed as “strong suppression of transcription of all three genes” and the “qPCR COX2 (heatmap grade of inhibition)” value is reported as 4.
